Tests used:
[1] = tested on: SW-620; assay: Inhibition of colony formation in human SW620 cells at 50 nM after 14 days by crystal violet staining-based microscopic analysis; type: functional; conditions: SW-620, 336 h
[2] = biological target: Mitogen-activated protein kinase 13 (Homo sapiens) (UniProt O15264); assay: Inhibition of recombinant full-length human SAPK4 assessed as residual activity at 10 uM using myelin basic protein as substrate measured after 40 mins in presence of [gamma33P]ATP by scintillation counting method
[3] = biological target: Mitogen-activated protein kinase 11 (Homo sapiens) (UniProt Q15759); assay: Inhibition of recombinant full-length human SAPK2b assessed as residual activity at 10 uM using myelin basic protein as substrate measured after 40 mins in presence of [gamma33P]ATP by scintillation counting method
[4] = tested on: Ribosomal protein S6 kinase alpha-1 (Rattus norvegicus), Q63531 [S637N,G697A]; assay: Inhibition of recombinant full-length rat Rsk1 S637N/G697A mutant assessed as residual activity at 10 uM using KKKNRTLSVA as substrate measured after 40 mins in presence of [gamma33P]ATP by scintillation counting method
[5] = tested on: Protein kinase C eta type (Homo sapiens), P24723 [UNDEFINED MUTATION]; assay: Inhibition of recombinant human PKCeta V108L/G109R/L392Q mutant (2 to end residues) assessed as residual activity at 10 uM using ERMRPRKRQGSVRRRV as substrate measured after 40 mins in presence of [gamma33P]ATP by scintillation counting method
[6] = biological target: Dual specificity mitogen-activated protein kinase kinase 1 (Homo sapiens) (UniProt Q02750); assay: Inhibition of recombinant full-length human MEK1 assessed as residual activity at 10 uM using unactive MAPK2 as substrate measured after 40 mins in presence of [gamma33P]ATP by scintillation counting method
[7] = biological target: Interleukin-1 receptor-associated kinase 1 (Homo sapiens) (UniProt P51617); assay: Inhibition of recombinant human IRAK1 (194 to end residues) assessed as residual activity at 10 uM using myelin basic protein as substrate measured after 40 mins in presence of [gamma33P]ATP by scintillation counting method
[8] = biological target: Cyclin-Y/Cyclin-dependent kinase 16 (Homo sapiens) (UniProt Q00536+Q8ND76); assay: Inhibition of recombinant full length human CDK16/cyclinY assessed as residual activity at 10 uM using PKSPKARKKL as substrate measured after 120 mins in presence of [gamma33P]ATP by scintillation counting method; type: protein-complex assay
[9] = biological target: Cyclin-dependent kinase-like 3 (Homo sapiens) (UniProt Q8IVW4); assay: Inhibition of recombinant human full-length CDKL3 (1 to 303 residues) assessed as residual activity at 10 uM using RRRFRPASPLRGP as substrate measured after 120 mins in presence of [gamma33P]ATP by scintillation counting method
[10] = biological target: Tau-tubulin kinase 2 (Homo sapiens) (UniProt Q6IQ55); assay: Inhibition of human TTBK2 (1 to 331 residues) using Casein as substrate measured after 40 mins in presence of [gamma33P]ATP by scintillation counting method; design: scale not given: the % may be the effect or the level left
[11] = tested on: Dual specificity protein kinase TTK (Homo sapiens), P33981 [S389A]; assay: Inhibition of recombinant full-length human TTK S389A mutant assessed as residual activity at 10 uM using MBP as substrate measured after 40 mins in presence of [gamma33P]ATP by scintillation counting method
[12] = biological target: Tyrosine-protein kinase Fer (Homo sapiens) (UniProt P16591); assay: Inhibition of recombinant human FER (541 to end residues) assessed as residual activity at 10 uM using KKKSPGEYVNIEFG as substrate measured after 40 mins in presence of [gamma33P]ATP by scintillation counting method
[13] = organism: Homo sapiens; assay: Inhibition of recombinant human EphB2 A848S/ K918E mutant (560 to end residues) assessed as residual activity at 10 uM using KTFCGTPEYLAPEVRREPRILSEEEQEMFRDFDYIADWC as substrate measured after 40 mins in presence of [gamma33P]ATP by scintillation counting method
[14] = biological target: Calcium/calmodulin-dependent protein kinase kinase 1 (Homo sapiens) (UniProt Q8N5S9); assay: Inhibition of recombinant full-length human CAMKk1 assessed as residual activity at 10 uM using calmodulin as substrate measured after 40 mins in presence of [gamma33P]ATP by scintillation counting method
[15] = biological target: Mast/stem cell growth factor receptor Kit (Homo sapiens) (UniProt P10721); assay: Inhibition of recombinant human c-Kit (544 to end residues) assessed as residual activity at 10 uM using poly(Glu, Tyr) 4:1 as substrate measured after 40 mins in presence of [gamma33P]ATP by scintillation counting method
[16] = tested on: Epidermal growth factor receptor (Homo sapiens), P00533 [L858R]; assay: Inhibition of recombinant human EGFR L858R mutant (696 to end residues) assessed as residual activity at 10 uM using poly(Glu, Tyr) 4:1 as substrate measured after 40 mins in presence of [gamma33P]ATP by scintillation counting method
[17] = biological target: Serine/threonine-protein kinase haspin (Homo sapiens) (UniProt Q8TF76); assay: Inhibition of recombinant human haspin (471 to end residues) assessed as residual activity at 10 uM using RARTLSFAEPG as substrate measured after 40 mins in presence of [gamma33P]ATP by scintillation counting method
[18] = biological target: Dual specificity mitogen-activated protein kinase kinase 4 (Homo sapiens) (UniProt P45985); assay: Inhibition of recombinant human MKK4 (34 to end residues) assessed as residual activity at 10 uM using unactive JNK1a1 as substrate measured after 40 mins in presence of [gamma33P]ATP by scintillation counting method
[19] = tested on: SNF-related serine/threonine-protein kinase (Homo sapiens), Q9NRH2 [UNDEFINED MUTATION]; assay: Inhibition of human SNRK E97G/P116A mutant (65 to 409 residues) using KKLRRTLSFAEPG as substrate measured after 40 mins in presence of [gamma33P]ATP by scintillation counting method; design: scale not given: the % may be the effect or the level left
[20] = biological target: Serine/threonine-protein kinase 32B (Homo sapiens) (UniProt Q9NY57); assay: Inhibition of recombinant full-length human STK32B assessed as residual activity at 10 uM using casein as substrate measured after 120 mins in presence of [gamma33P]ATP by scintillation counting method
[21] = biological target: Transcription initiation factor TFIID subunit 1-like (Homo sapiens) (UniProt Q8IZX4); assay: Inhibition of human TAF1L (1428 to end residues) using RRRFRPASPLRGPPK as substrate measured after 120 mins in presence of [gamma33P]ATP by scintillation counting method; design: scale not given: the % may be the effect or the level left
[22] = tested on: SW-620; assay: Induction of apoptosis in human SW620 cells assessed as late apoptotic cells at 100 nM measured after 48 hrs by Annexin V-FITC/propidium iodide staining-based flow cytometry (reference value: 1.8%); type: functional
[23] = tested on: SW-620; assay: Induction of apoptosis in human SW620 cells assessed as necrotic cells at 50 nM measured after 48 hrs by Annexin V-FITC/propidium iodide staining-based flow cytometry (reference value: 2.71%); type: functional

Chain of Dual specificity mitogen-activated protein kinase kinase 4 (Homo sapiens) (P45985 whole entry, the tested form may be a part): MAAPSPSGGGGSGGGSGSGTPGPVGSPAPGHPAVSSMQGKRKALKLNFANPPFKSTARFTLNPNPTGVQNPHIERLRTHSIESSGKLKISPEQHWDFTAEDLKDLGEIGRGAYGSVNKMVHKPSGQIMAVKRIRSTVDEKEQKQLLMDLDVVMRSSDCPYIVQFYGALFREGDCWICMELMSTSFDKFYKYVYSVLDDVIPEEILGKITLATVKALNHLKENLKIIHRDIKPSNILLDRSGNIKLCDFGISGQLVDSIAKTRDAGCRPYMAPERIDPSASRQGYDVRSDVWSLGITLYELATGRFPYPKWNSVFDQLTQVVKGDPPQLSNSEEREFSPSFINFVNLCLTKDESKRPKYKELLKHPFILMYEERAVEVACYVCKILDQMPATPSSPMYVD
Chain of Tyrosine-protein kinase Fer (Homo sapiens) (P16591 whole entry, looked up): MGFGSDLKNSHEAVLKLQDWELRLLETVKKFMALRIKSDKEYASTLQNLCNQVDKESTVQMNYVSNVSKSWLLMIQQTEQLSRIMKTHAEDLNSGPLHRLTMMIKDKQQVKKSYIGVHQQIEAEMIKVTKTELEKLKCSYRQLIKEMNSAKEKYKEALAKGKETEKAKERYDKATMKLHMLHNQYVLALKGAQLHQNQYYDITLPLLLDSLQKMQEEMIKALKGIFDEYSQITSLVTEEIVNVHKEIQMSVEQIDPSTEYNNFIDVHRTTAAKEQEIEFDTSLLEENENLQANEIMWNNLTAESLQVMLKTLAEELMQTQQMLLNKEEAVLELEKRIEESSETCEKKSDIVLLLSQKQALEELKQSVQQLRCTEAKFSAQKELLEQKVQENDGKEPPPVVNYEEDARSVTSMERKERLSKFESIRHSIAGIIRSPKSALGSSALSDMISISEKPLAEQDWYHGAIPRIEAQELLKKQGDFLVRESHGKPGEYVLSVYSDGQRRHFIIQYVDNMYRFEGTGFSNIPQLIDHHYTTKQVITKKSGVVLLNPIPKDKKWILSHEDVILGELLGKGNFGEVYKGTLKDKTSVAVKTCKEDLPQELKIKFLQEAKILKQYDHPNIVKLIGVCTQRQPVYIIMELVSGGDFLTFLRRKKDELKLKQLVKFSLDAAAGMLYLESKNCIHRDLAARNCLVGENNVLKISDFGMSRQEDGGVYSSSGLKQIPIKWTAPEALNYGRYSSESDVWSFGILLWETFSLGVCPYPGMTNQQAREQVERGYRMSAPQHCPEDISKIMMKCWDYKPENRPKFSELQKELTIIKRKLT
Chain of Protein kinase C eta type (Homo sapiens), P24723 [UNDEFINED MUTATION] (P24723 whole entry, looked up, stated change not applied): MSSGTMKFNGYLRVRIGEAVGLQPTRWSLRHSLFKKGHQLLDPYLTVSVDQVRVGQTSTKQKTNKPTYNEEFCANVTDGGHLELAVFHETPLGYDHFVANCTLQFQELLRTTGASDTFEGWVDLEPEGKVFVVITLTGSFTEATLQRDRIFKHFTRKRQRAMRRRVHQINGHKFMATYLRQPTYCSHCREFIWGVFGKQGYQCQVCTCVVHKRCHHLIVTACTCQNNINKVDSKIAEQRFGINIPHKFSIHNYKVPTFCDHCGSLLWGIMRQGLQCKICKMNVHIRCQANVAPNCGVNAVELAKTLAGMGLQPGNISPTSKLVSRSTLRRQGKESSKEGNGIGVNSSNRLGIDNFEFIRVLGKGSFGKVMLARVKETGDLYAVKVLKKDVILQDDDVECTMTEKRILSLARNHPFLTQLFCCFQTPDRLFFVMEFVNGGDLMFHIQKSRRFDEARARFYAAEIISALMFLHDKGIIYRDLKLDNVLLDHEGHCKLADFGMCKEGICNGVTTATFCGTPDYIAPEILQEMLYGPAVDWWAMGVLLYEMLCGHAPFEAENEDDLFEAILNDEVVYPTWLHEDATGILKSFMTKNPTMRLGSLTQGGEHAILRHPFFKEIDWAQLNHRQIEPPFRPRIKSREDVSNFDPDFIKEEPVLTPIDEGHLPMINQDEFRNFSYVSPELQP
Chain of Dual specificity protein kinase TTK (Homo sapiens), P33981 [S389A] (P33981 whole entry S389A): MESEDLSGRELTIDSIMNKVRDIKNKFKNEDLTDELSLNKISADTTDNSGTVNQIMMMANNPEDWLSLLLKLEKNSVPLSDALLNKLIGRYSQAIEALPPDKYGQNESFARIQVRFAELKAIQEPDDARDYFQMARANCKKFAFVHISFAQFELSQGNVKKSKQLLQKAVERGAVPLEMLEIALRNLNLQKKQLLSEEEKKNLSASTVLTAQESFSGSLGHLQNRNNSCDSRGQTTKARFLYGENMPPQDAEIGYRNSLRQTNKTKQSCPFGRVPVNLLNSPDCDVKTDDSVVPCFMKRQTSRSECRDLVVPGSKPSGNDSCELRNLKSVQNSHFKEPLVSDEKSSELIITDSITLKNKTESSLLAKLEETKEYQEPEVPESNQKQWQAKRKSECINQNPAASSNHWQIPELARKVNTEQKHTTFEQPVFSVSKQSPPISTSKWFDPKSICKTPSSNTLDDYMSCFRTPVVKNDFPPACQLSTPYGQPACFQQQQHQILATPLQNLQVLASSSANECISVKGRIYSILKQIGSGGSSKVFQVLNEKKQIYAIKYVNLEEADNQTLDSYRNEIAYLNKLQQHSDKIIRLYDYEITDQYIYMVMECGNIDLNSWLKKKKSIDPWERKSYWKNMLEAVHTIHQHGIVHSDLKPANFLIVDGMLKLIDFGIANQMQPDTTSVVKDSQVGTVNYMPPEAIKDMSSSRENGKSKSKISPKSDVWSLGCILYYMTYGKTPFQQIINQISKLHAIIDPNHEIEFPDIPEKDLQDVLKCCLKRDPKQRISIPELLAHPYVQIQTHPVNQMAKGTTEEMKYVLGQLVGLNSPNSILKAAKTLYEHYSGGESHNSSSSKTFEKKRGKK
Chain of Calcium/calmodulin-dependent protein kinase kinase 1 (Homo sapiens) (Q8N5S9 whole entry, looked up): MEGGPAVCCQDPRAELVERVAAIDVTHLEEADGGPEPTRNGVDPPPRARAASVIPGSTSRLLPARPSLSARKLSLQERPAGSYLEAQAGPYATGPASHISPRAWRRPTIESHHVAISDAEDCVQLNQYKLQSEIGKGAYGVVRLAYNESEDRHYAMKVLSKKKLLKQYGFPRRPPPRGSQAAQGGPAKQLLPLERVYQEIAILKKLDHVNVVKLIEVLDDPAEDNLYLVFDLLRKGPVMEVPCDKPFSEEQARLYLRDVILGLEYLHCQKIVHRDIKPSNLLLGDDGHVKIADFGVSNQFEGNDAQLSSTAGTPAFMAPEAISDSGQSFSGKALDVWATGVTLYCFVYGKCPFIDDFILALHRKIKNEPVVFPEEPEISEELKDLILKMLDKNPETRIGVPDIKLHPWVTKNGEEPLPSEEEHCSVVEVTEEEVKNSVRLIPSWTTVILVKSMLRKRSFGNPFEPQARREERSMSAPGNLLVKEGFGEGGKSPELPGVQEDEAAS
Chain of Serine/threonine-protein kinase haspin (Homo sapiens) (Q8TF76 whole entry): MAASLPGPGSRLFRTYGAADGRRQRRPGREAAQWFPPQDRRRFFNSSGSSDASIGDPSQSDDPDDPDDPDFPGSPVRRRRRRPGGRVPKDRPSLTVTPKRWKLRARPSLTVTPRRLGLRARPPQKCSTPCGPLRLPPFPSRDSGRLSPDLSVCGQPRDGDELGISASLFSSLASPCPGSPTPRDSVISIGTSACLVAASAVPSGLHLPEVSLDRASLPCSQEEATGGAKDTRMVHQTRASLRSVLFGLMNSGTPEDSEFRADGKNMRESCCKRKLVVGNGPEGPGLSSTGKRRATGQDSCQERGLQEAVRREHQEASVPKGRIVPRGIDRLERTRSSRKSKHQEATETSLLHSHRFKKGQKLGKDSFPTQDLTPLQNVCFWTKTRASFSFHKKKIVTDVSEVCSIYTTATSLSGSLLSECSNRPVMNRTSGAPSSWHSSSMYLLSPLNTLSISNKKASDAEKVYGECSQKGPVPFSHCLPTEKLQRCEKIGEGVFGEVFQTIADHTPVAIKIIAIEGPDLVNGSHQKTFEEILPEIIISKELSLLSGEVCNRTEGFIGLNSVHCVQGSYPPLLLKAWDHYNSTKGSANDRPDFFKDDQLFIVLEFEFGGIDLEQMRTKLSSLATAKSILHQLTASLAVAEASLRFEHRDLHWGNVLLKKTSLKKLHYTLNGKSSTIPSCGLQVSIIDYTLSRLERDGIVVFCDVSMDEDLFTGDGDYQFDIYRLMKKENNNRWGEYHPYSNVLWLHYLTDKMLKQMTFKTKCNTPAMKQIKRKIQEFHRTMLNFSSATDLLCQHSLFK
Chain of Dual specificity mitogen-activated protein kinase kinase 1 (Homo sapiens) (Q02750 whole entry): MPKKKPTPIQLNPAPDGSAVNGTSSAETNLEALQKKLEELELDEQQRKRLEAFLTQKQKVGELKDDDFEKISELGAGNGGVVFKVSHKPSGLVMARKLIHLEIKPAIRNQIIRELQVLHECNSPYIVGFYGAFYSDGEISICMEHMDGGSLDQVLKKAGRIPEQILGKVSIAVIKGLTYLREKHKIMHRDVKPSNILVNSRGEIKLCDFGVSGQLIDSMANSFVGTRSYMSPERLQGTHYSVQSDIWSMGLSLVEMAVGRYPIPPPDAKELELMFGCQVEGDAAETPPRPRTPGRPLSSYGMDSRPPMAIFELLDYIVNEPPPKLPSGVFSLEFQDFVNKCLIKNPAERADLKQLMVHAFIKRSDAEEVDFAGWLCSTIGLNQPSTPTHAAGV
Chain of Serine/threonine-protein kinase 32B (Homo sapiens) (Q9NY57 whole entry): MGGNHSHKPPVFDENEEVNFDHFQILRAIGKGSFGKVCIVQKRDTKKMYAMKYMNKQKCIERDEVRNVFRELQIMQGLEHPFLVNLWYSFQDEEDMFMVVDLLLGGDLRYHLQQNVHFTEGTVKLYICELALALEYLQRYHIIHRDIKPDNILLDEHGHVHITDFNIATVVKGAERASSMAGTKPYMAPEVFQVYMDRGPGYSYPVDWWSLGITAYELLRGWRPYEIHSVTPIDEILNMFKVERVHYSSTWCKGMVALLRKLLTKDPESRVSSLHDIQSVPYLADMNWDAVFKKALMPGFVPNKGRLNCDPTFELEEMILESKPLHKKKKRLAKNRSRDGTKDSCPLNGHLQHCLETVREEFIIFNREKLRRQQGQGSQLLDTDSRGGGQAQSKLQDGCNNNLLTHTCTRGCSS

Cc1cc(C)c(CNc2nc(Cl)nc3c2ncn3C2CCCC2)c(=O)[nH]1
inhibition at 0.05 µM [1]: 100%
Activity [2]: 96.5%
Activity [3]: 100%
Activity [4]: 104%
Activity [5]: 98.5%
Activity [6]: 100%
Activity [7]: 102%
Activity [8]: 123%
Activity [9]: 126%
Activity [10]: 104%
Activity [11]: 99.5%
Activity [12]: 108%
Activity [13]: 93.5%
Activity [14]: 102%
Activity [15]: 99.5%
Activity [16]: 104%
Activity [17]: 89%
Activity [18]: 133%
Activity [19]: 111%
Activity [20]: 98%
Activity [21]: 108%
Activity [22]: 23.1%
Activity [23]: 6.3%
